Results published in patent US11787825B2 (priority 2021, dated 2023).
≈ marks a conversion by molar mass, not a printed value. Read-outs that look alike come from different tables or passages of the source. Marks after values point to notes of the source that are not given here.

Tests used:
[1] = Beagle, in vivo, po; for Dog F % (suspension): pH 2
physchem = conditions: 25 °C, thermodynamic from solid
[2] = 0.1N HCL, 1.0% DMSO, 24-hour incubation at ambient temperature, maximum theoretical compound concentration 100 μM
[3] = 1×PBS buffer (pH 7.4), 1.0% DMSO, 24-hour incubation at ambient temperature, maximum theoretical compound concentration 100 μM
[4] = fasted state simulated intestinal fluid (FaSSIF), fassif
[5] = fed state simulated intestinal fluid (FeSSIF), fessif

solubility (physchem; [5]) | Compound | pH 2 solubility [2] | pH 7 solubility [3] | further results
 | Cc1cc(CP(=O)(O)O)c(C(C)(C)CC(=O)N(c2nn(CC(F)(F)F)c3c(-c4ccc(C#CC(C)(C)S(C)(=O)=O)nc4[C@H](Cc4cc(F)cc(F)c4)NC(=O)Cn4nc(C(F)(F)F)c5c4C(F)(F)[C@@H]4C[C@H]54)ccc(Cl)c23)S(C)(=O)=O)c(OP(=O)(O)O)c1 [Compound 55, (2-(4-(N-(4-chloro-7-(2-((S)-1-(2-((3bS,4aR)-5,5-difluoro-3-(trifluoromethyl)-3b,4,4a,5-tetrahydro-1H-cyclopropa[3,4]cyclopenta[1,2-c]pyrazol-1-yl)acetamido)-2-(3,5-difluorophenyl)ethyl)-6-(3-methyl-3-(methylsulfonyl)but-1-yn-1-yl)pyridin-3-yl)-1-(2,2,2-trifluoroethyl)-1H-indazol-3-yl)methylsulfonamido)-2-methyl-4-oxobutan-2-yl)-5-methyl-3-(phosphonooxy)benzyl)phosphonic acid] |  |  | Dog F % (solution) [1]: 33 ^c %; solubility (physchem; fassif): > 10000 µg/mL
 | Cc1cc(CC(=O)N[C@@H](CC(=O)O)C(=O)O)c(C(C)(C)CC(=O)N(c2nn(CC(F)(F)F)c3c(-c4ccc(C#CC(C)(C)S(C)(=O)=O)nc4[C@H](Cc4cc(F)cc(F)c4)NC(=O)Cn4nc(C(F)(F)F)c5c4C(F)(F)[C@@H]4C[C@H]54)ccc(Cl)c23)S(C)(=O)=O)c(OP(=O)(O)O)c1 [Compound 59, (2-(2-(4-(N-(4-chloro-7-(2-((S)-1-(2-((3bS,4aR)-5,5-difluoro-3-(trifluoromethyl)-3b,4,4a,5-tetrahydro-1H-cyclopropa[3,4]cyclopenta[1,2-c]pyrazolyl)acetamido)-2-(3,5-difluorophenyl)ethyl)-6-(3-methyl-3-(methylsulfonyl)but-1-ynyl)pyridin-3-yl)-1-(2,2,2-trifluoroethyl)-1H-indazol-3-yl)methylsulfonamido)-2-methyloxobutan-2-yl)-5-methyl-3-(phosphonooxy)phenyl)acetyl)-L-aspartic acid] |  |  | Dog F % (solution) [1]: 27 ^c %
 | CC(C)(C#Cc1ccc(-c2ccc(Cl)c3c(N(C(=O)CCCN(C(=O)OCOP(=O)(O)O)[C@H](C(=O)O)c4ccccc4)S(C)(=O)=O)nn(CC(F)(F)F)c23)c([C@H](Cc2cc(F)cc(F)c2)NC(=O)Cn2nc(C(F)(F)F)c3c2C(F)(F)[C@@H]2C[C@H]32)n1)S(C)(=O)=O [Compound 40] | 1 μM | 100 μM | Dog F % (suspension) [1]: 5%
 | CC(C)(CC(=O)N(c1nn(CC(F)(F)F)c2c(-c3ccc(C#CC(C)(C)S(C)(=O)=O)nc3[C@H](Cc3cc(F)cc(F)c3)NC(=O)Cn3nc(C(F)(F)F)c4c3C(F)(F)[C@@H]3C[C@H]43)ccc(Cl)c12)S(C)(=O)=O)CN(CC(=O)O)C(=O)OCOP(=O)(O)O [Compound 42, N-(4-(N-(4-chloro-7-(2-((S)-1-(2-((3bS,4aR)-5,5-difluoro (trifluoromethyl)-3b,4,4a,5-tetrahydro-1H-cyclopropa[3,4]cyclopenta[1,2-c]pyrazolyl)acetamido)-2-(3,5-difluorophenyl)ethyl)-6-(3-methyl-3-(methylsulfonyl)but-1-ynyl)pyridin-3-yl)-1-(2,2,2-trifluoroethyl)-1H-indazol-3-yl)methylsulfonamido)-2,2-dimethyl-4-oxobutyl)-N-(((phosphonooxy)methoxy)carbonyl)glycine] | 1 μM | 100 μM | Dog F % (suspension) [1]: 9%
 | CC(C)(C#Cc1ccc(-c2ccc(Cl)c3c(N(C(=O)/C=C/C(=O)N(CCC(=O)O)[C@@H](CC(=O)O)C(=O)O)S(C)(=O)=O)nn(CC(F)(F)F)c23)c([C@H](Cc2cc(F)cc(F)c2)NC(=O)Cn2nc(C(F)(F)F)c3c2C(F)(F)[C@@H]2C[C@H]32)n1)S(C)(=O)=O [Compound 3, N-(2-carboxyethyl)-N—((E)-4-(N-(4-chloro-7-(2-((S)-1-(2-((3bS,4aR)-5,5-difluoro-3-(trifluoromethyl)-3b,4,4a,5-tetrahydro-111-cyclopropa[3,4]cyclopenta[1,2-c]pyrazol-1-yl)acetamido)-2-(3,5-difluorophenyl)ethyl)-6-(3-methyl-3-(methylsulfonyl)but-1-yn-1-yl)pyridin-3-yl)-1-(2,2,2-trifluoroethyl)-1H-indazol-3-yl)methylsulfonamido)-4-oxobut-2-enoyl)-L-aspartic acid] |  |  | Dog F % (suspension) [1]: 10%
 | Cc1cc(C(=O)N[C@@H](CC(=O)O)C(=O)O)cc(OP(=O)(O)O)c1C(C)(C)CC(=O)N(c1nn(CC(F)(F)F)c2c(-c3ccc(C#CC(C)(C)S(C)(=O)=O)nc3[C@H](Cc3cc(F)cc(F)c3)NC(=O)Cn3nc(C(F)(F)F)c4c3C(F)(F)[C@@H]3C[C@H]43)ccc(Cl)c12)S(C)(=O)=O [Compound 65, (4-(4-(N-(4-chloro-7-(2-((S)-1-(2-((3bS,4aR)-5,5-difluoro-3-(trifluoromethyl)-3b,4,4a,5-tetrahydro-1H-cyclopropa[3,4]cyclopenta[1,2-c]pyrazol-1-yl)acetamido)-2-(3,5-difluorophenyl)ethyl)-6-(3-methyl-3-(methylsulfonyl)but-1-yn-1-yl)pyridin-3-yl)-1-(2,2,2-trifluoroethyl)-1H-indazol-3-yl)methylsulfonamido)-2-methyl-4-oxobutan-2-yl)-3-methyl-5-(phosphonooxy)benzoyl)-L-aspartic acid] |  |  | solubility (physchem; fassif): 1100 µg/mL (≈ 787 µM); pH 2 solubility (pH 2): 7/68 μM; pH 7 solubility (pH 7.4): 7/68 μM
45 µg/mL (≈ 42.2 µM) | CC(C)(C#Cc1ccc(-c2ccc(Cl)c3c(N(C(=O)/C=C/C(=O)O)S(C)(=O)=O)nn(CC(F)(F)F)c23)c([C@H](Cc2cc(F)cc(F)c2)NC(=O)Cn2nc(C(F)(F)F)c3c2C(F)(F)[C@@H]2C[C@H]32)n1)S(C)(=O)=O [Compound 1, (E)-4-(N-(4-chloro-7-(2-((S)-1-(2-((3bS,4aR)-5,5-difluoro-3-(trifluoromethyl)-3b,4,4a,5-tetrahydro-1H-cyclopropa[3,4]cyclopenta[1,2-c]pyrazol-1-yl)acetamido)-2-(3,5-difluorophenyl)ethyl)-6-(3-methyl-3-(methylsulfonyl)but-1-yn-1-yl)pyridin-3-yl)-1-(2,2,2-trifluoroethyl)-1H-indazol-3-yl)methylsulfonamido)-4-oxobut-2-enoic acid] |  |  | solubility (physchem; [4]): 321 µg/mL (≈ 301 µM); pH 7 solubility: 1/86 μM; pH 2 solubility (pH 2): 1/86 μM
130 µg/mL (≈ 109 µM) | CC(C)(C#Cc1ccc(-c2ccc(Cl)c3c(N(C(=O)CCCC(=O)OCOP(=O)(O)O)S(C)(=O)=O)nn(CC(F)(F)F)c23)c([C@H](Cc2cc(F)cc(F)c2)NC(=O)Cn2nc(C(F)(F)F)c3c2C(F)(F)[C@@H]2C[C@H]32)n1)S(C)(=O)=O [Compound 29, (phosphonooxy)methyl 5-(N-(4-chloro-7-(2-((S)-1-(2-((3bS,4aR)-5,5-difluoro-3-(trifluoromethyl)-3b,4,4a,5-tetrahydro-1H-cyclopropa[3,4]cyclopenta[1,2-c]pyrazol-1-yl)acetamido)-2-(3,5-difluorophenyl)ethyl)-6-(3-methyl-3-(methylsulfonyl)but-1-yn-1-yl)pyridin-3-yl)-1-(2,2,2-trifluoroethyl)-1H-indazol-3-yl)methylsulfonamido)-5-oxopentanoate] | 2 μM | 92 μM | solubility (physchem; [4]): 268 µg/mL (≈ 225 µM)
6 µg/mL (≈ 5.7 µM) | CN(C)CC(=O)N(c1nn(CC(F)(F)F)c2c(-c3ccc(C#CC(C)(C)S(C)(=O)=O)nc3[C@H](Cc3cc(F)cc(F)c3)NC(=O)Cn3nc(C(F)(F)F)c4c3C(F)(F)[C@@H]3C[C@H]43)ccc(Cl)c12)S(C)(=O)=O [Compound 4, N-(4-chloro-7-(2-((S)-1-(2-((3bS,4aR)-5,5-difluoro-3-(trifluoromethyl)-3b,4,4a,5-tetrahydro-1H-cyclopropa[3,4]cyclopenta[1,2-c]pyrazol-1-yl)acetamido)-2-(3,5-difluorophenyl)ethyl)-6-(3-methyl-3-(methylsulfonyl)but-1-yn-1-yl)pyridin-3-yl)-1-(2,2,2-trifluoroethyl)-1H-indazol-3-yl)-2-(dimethylamino)-N-(methylsulfonyl)acetamide] | 42 μM | 1 μM | 
450 µg/mL | CC(C)(C#Cc1ccc(-c2ccc(Cl)c3c(N(C(=O)CCCOP(=O)(O)O)S(C)(=O)=O)nn(CC(F)(F)F)c23)c([C@H](Cc2cc(F)cc(F)c2)NC(=O)Cn2nc(C(F)(F)F)c3c2C(F)(F)[C@@H]2C[C@H]32)n1)S(C)(=O)=O [Compound 27, 4-(N-(4-chloro-7-(2-((S)-1-(2-((3bS,4aR)-5,5-difluoro-3-(trifluoromethyl)-3b,4,4a,5-tetrahydro-1H-cyclopropa[3,4]cyclopenta[1,2-c]pyrazol-1-yl)acetamido)-2-(3,5-difluorophenyl)ethyl)-6-(3-methyl-3-(methylsulfonyl)but-1-yn-1-yl)pyridin-3-yl)-1-(2,2,2-trifluoroethyl)-1H-indazol-3-yl)methylsulfonamido)-4-oxobutyl dihydrogen phosphate] | 1 μM | 26 μM | solubility (physchem; [4]): 190 µg/mL
 | C[C@H](NC(=O)OCOP(=O)(O)O)C(=O)N(c1nn(CC(F)(F)F)c2c(-c3ccc(C#CC(C)(C)S(C)(=O)=O)nc3[C@H](Cc3cc(F)cc(F)c3)NC(=O)Cn3nc(C(F)(F)F)c4c3C(F)(F)[C@@H]3C[C@H]43)ccc(Cl)c12)S(C)(=O)=O [Compound 36, (phosphonooxy)methyl ((S)-1-(N-(4-chloro-7-(2-((S)-1-(2-((3bS,4aR)-5,5-difluoro-3-(trifluoromethyl)-3b,4,4a,5-tetrahydrocyclopropa[3,4]cyclopenta[1,2-c]pyrazol-1-yl)acetamido)-2-(3,5-difluorophenyl)ethyl)-6-(3-methyl-3-(methylsulfonyl)but-1-yn-1-yl)pyridin-3-yl)-1-(2,2,2-trifluoroethyl)-1H-indazolyl)methylsulfonamido)-1-oxopropan-2-yl)carbamate] | 3 μM | 100 μM | solubility (physchem; fassif): 661 µg/mL (≈ 554 µM)
